Data reported in US10214779B2, “Method for identification of anti-HIV human miRNA mimics and miRNA inhibitors and anti-HIV pharmaceutical compounds” (CSIR, priority 2013, dated 2019).
pIC50: −log10 of the molar value. Where a name gives a salt, the structure may show the parent alone. *1 amine or outer side, *2 acyl side, *3 side chain or, on linkers, in order; H or OH if unused. Where a SMILES comes first, the peptide text is derived from it. Bridges are numbered along the chain shown (N, C = ends). Roman numbers before positions name the chains, in order. [ ]: non-standard residue; d: D form. Actinocin(9to1) = Cc1c2oc3c(C)ccc(C(=O)[*:1])c3nc-2c(C(=O)[*:2])c(N)c1=O; NMeV = CN[C@H](C(=O)O)C(C)C; Sar = CNCC(=O)O

Legend:
[1] = test system: HIV (Subtype B pseudoviral strain, PSGIII) in GHOST(3) cells; test: Targeted drug screen, Clearance Screen (drug after HIV infection) in GHOST(3) cells; format: cell-based, HIV-1; conditions: infection MOI 0.5 for 48 hour, then drug 24 h, screened at 100 nM, 1 uM and 10 uM
Protocol: A library of 101 Food and Drug Administration (FDA) approved oncology drugs as well as a library of 192 kinase-inhibitor compounds were screened as potential anti-HIV therapeutics using the GHOST(3) reporter cell line. Drugs were screened at 3 different concentrations of 100 nM, 1 uM and 10 uM. Each library was screened in triplicate at each drug concentration and in the following 3 formats:
This screen format was utilised to identify drugs/compounds that were able to suppress HIV replication in host cells already infected by HIV or drugs/compounds that were able to selectively target HIV-infected cells for apoptosis. GHOST(3) cells were seeded in the wells of a 96 well plate 24 hour prior to infection with the Subtype B pseudoviral strain, PSGIII, at an MOI of 0.5. The infective media was then removed 48 hour post infection and replaced with normal culture media supplemented with a drug/compound at the appropriate concentration. Twenty-four hours post drug treatment, cells were processed for imaging as previously described.
This screen format was used as a control to identify drugs that were broadly cytotoxic. […] GHOST(3) cells were seeded in 96 well plates, 24 hr post seeding, drugs were added to culture medium at the required final concentration. Twenty-four hours post drug treatment cells were processed for imaging as described previously.
Subtype B viral stocks were produced by the dual transfection of HEK293T cells with a PSGIII (Subtype B) viral backbone plasmid which lacks an envelope/packaging protein and a second plasmid expressing an HIV-BAL viral envelope protein (Subtype B). Plasmid transfections were conducted using the FuGene 6 lipid-based transfection reagent (Promega) as per the manufacturer's guidelines. Viral titres were determined using a luciferase readout-assay based on the JC53 cell line and the TCID50 calculation method described by Reed and Muench (1938). GHOST(3) cells were exposed to virions at an MOI of 0.5 for both the miRNA and targeted drug/compound screens. Cells were infected in SFM supplemented with 1× Glutamax (Infecting media) as FBS has previously been described to negatively impact the infection efficiency of HIV.
Cells were washed twice in 1×PBS before fixation with a 3.7% Formaldehyde solution for 30 minutes at room temperature. Cells were washed once with 1× PBS before the addition of Hoechst Nuclear stain (Invitrogen) at 2 uM final concentration in 1×PBS for 30 minutes at room temperature. The Hoechst staining solution was aspirated and replaced with 50 uL of 1×PBS solution before imaging.
Four fields of view (100 um apart) were acquired from the central region of each well imaged. Images were acquired in the 405 and 488 fluorescent channels for each field of view. Wells were imaged using the 20× ewld objective on the Image Xpress Ultra automated confocal microscope system (Molecular Devices). The imaging parameters were kept constant for all replicates of both miRNA and targeted drug/compound screens.
Feature extraction algorithms were utilized in order to extract 16 subcellular measurements from the acquired images. These 16 factors are derived from 15 descriptors previously described by Genovesio et al. 2011 to be relevant indicators of the infective state of host cells, with addition of ‘infection efficiency’ as a descriptor of the percentage of infected cells per treatment well.
A bespoke support vector machine-learning (SVML) pattern recognition algorithm was trained to identify phenotypes of interest using the relevant control wells. […] The transfection of siCD4 and Raltegravir treatment were thus utilised in the miRNA and drug/compound screens respectively as positive controls for the inhibition of HIV-1 replication. […]

[2] = test system: HIV (Subtype B pseudoviral strain, PSGIII) in GHOST(3) cells; test: Targeted drug screen, Phenocopy Screen (drug before HIV infection) in GHOST(3) cells; conditions: for Effect (Phenocopy Screen): drug 24 h before infection, MOI 0.5, 48 hour, screened at 100 nM, 1 uM and 10 uM, GHOST(3) cells
Protocol: GHOST(3) cells were seeded in the wells of a 96 well plate 24 hour prior to addition of a specific oncology drug at the appropriate concentration. Twenty-four hours post drug treatment, the drug supplemented media was removed and replaced with infective media containing the Subtype B pseudoviral strain, PSGIII. Cells were infected at an MOI of 0.5. The infective media was removed 48 hour post infection and cells were processed for imaging as previously described (See Sample Preparation).
Four fields of view (100 um apart) were acquired from the central region of each well imaged. […] Wells were imaged using the 20× ewld objective on the Image Xpress Ultra automated confocal microscope system (Molecular Devices). The imaging parameters were kept constant for all replicates of both miRNA and targeted drug/compound screens.

Aurora A = target: T1, Aurora A (Homo sapiens, UniProt O14965); conditions: cited from earlier work
T1 sequence (O14965 1-403): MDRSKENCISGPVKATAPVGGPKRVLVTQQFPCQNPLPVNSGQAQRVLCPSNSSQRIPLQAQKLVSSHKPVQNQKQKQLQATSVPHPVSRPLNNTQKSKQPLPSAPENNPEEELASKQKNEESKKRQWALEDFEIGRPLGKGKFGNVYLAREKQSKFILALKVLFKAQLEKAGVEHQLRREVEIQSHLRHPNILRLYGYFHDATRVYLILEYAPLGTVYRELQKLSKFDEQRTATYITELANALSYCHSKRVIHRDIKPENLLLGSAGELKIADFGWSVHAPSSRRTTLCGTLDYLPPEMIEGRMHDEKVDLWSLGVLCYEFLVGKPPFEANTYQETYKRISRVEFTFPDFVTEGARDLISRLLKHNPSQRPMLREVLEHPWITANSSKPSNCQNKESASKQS

Aurora B = Aurora B (Homo sapiens, UniProt Q96GD4); conditions: cited from earlier work
p110γ = p110γ (Homo sapiens, UniProt P48736); conditions: cited from earlier work
Chain of p110γ (P48736 whole entry, species assumed): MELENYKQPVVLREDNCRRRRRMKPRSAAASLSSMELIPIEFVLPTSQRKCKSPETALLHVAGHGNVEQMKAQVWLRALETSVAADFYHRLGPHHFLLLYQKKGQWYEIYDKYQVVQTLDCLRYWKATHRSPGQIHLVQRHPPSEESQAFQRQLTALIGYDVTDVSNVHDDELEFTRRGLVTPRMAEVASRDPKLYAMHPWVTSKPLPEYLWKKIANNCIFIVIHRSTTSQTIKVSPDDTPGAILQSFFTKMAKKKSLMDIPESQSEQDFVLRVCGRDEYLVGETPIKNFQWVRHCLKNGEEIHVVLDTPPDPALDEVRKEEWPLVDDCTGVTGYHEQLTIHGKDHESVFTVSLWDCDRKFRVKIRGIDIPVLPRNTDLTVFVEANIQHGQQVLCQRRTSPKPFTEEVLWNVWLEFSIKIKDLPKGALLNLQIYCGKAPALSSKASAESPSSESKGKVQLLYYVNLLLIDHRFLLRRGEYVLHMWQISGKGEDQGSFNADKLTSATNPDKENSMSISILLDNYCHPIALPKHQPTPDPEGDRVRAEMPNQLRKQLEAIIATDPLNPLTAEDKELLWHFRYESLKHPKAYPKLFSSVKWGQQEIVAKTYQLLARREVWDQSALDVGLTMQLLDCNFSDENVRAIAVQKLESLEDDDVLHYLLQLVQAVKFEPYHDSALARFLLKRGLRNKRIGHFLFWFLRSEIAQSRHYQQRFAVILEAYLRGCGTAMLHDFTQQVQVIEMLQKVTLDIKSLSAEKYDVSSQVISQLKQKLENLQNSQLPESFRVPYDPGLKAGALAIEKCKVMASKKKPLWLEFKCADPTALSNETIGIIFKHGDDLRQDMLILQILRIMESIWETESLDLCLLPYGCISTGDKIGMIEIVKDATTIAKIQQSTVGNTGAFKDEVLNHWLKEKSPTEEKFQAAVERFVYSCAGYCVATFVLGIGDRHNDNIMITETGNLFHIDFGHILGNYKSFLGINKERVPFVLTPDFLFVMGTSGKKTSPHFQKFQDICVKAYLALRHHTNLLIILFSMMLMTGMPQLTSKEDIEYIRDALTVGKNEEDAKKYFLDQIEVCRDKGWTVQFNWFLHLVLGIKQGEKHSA

Chain of Aurora B (Q96GD4 whole entry): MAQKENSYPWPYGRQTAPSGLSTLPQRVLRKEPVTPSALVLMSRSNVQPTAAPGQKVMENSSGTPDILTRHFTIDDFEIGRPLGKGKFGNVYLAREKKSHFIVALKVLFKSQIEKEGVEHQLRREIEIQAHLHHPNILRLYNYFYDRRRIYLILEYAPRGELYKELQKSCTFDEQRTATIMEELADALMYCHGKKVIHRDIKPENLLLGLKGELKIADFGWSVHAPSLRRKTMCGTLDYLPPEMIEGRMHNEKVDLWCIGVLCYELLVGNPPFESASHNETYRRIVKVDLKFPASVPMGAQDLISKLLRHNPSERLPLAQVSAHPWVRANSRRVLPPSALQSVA

Cc1[nH]nc2ccc(-c3cncc(OC[C@@H](N)Cc4ccccc4)c3)cc12 [A-674563]
Effect (Clearance Screen) [1]: Suppressed HIV^b

O=C(NC1CCNCC1)c1[nH]ncc1NC(=O)c1c(Cl)cccc1Cl [AT7519]
Effect (Phenocopy Screen) [2]: Toxic in response

CCN1CCN(C(=O)Cc2ccc(Nc3ncc(F)c(Nc4ccc(C(=O)Nc5ccccc5Cl)cc4)n3)cc2)CC1 [Aurora A inhibitor I]
pIC50 (Aurora A; Aurora A): 8.47
B/A ratio (Aurora A; Aurora B / Aurora A selectivity): 1000
pIC50 (Aurora B): 5.47
Effect (Phenocopy Screen) [2]: Toxic in response

COC(=O)c1ccc2c(c1)NC(=O)/C2=C(\Nc1ccc(N(C)C(=O)CN2CCN(C)CC2)cc1)c1ccccc1 [BIBF1120 (Vargatef)]
Effect (Phenocopy Screen) [2]: Suppressed HIV^a

N.N.[Cl][Pt][Cl] [Cisplatin]
Effect (Clearance Screen) [1]: Suppressed HIV^b

CC1(COc2ccc3c(c2)ncn3-c2ccc3cccc(N4CCC(N)CC4)c3n2)COC1 [Crenolanib (CP-868596), Crenolanib]
Effect (Phenocopy Screen) [2]: Toxic in response

Cc1c2oc3c(C)ccc(C(=O)N[C@@H]4C(=O)N[C@H](C(C)C)C(=O)N5CCC[C@H]5C(=O)N(C)CC(=O)N(C)[C@@H](C(C)C)C(=O)O[C@@H]4C)c3nc-2c(C(=O)N[C@@H]2C(=O)N[C@H](C(C)C)C(=O)N3CCC[C@H]3C(=O)N(C)CC(=O)N(C)[C@@H](C(C)C)C(=O)O[C@@H]2C)c(N)c1=O [Dactinomycin] (I: T[dV]P[Sar][NMeV] / II: T[dV]P[Sar][NMeV]; ester I:1-I:C, II:1-II:C; linker I:N-II:N via Actinocin(9to1))
Effect (Clearance Screen) [1]: Suppressed HIV^b

C[C@@H](CN1CC(=O)NC(=O)C1)N1CC(=O)NC(=O)C1 [Dexrazoxane]
Effect (Clearance Screen) [1]: Suppressed HIV^b

C#Cc1cccc(Nc2ncnc3cc(OCCOC)c(OCCOC)cc23)c1 [Erlotinib hydrochloride]
Effect (Phenocopy Screen) [2]: Toxic in response

CO[C@H]1C[C@@H]2CC[C@@H](C)[C@@](O)(O2)C(=O)C(=O)N2CCCC[C@H]2C(=O)O[C@H]([C@H](C)C[C@@H]2CC[C@@H](OCCO)[C@H](OC)C2)CC(=O)[C@H](C)/C=C(\C)[C@@H](O)[C@@H](OC)C(=O)[C@H](C)C[C@H](C)/C=C/C=C/C=C/1C [Everolimus]
Effect (Clearance Screen) [1]: Suppressed HIV^b

O=c1[nH]c(=O)n([C@H]2C[C@H](O)[C@@H](CO)O2)cc1F [Floxuridine]
Effect (Phenocopy Screen) [2]: Toxic in response

COc1cc2c(Oc3ccc(NC(=O)C4(C(=O)Nc5ccc(F)cc5)CC4)cc3F)ccnc2cc1OCCCN1CCOCC1 [Foretinib]
Effect (Phenocopy Screen) [2]: Suppressed HIV^a

COc1ncc(-c2ccc3nccc(-c4ccnnc4)c3c2)cc1NS(=O)(=O)c1ccc(F)cc1F [GSK2126458]
Effect (Phenocopy Screen) [2]: Suppressed HIV^a

COc1cc2ncnc(Nc3ccc(F)c(Cl)c3)c2cc1OCCCN1CCOCC1 [Gefitinib]
Effect (Phenocopy Screen) [2]: Toxic in response

O=P1(NCCCl)OCCCN1CCCl (centres unmarked) [Ifosfamide]
Effect (Clearance Screen) [1]: Suppressed HIV^b

c1ccc2c(-c3cnn4cc(-c5ccc(N6CCNCC6)cc5)cnc34)ccnc2c1 [LDN193189]
Effect (Phenocopy Screen) [2]: Toxic in response

Cc1ccc(C(=O)Nc2cccc(C(F)(F)F)c2)cc1Nc1nc(-c2cccnc2)nc2c1cnn2C [NVP-BHG712]
Effect (Phenocopy Screen) [2]: Suppressed HIV^a

Cc1ccc([N+](=O)[O-])cc1S(=O)(=O)N(C)/N=C/c1cnc2ccc(Br)cn12 [PIK-75]
pIC50 (p110γ): 7.12
Effect (Phenocopy Screen) [2]: Toxic in response

Cc1ccc(C(=O)Nc2ccc(CN3CCN(C)CC3)c(C(F)(F)F)c2)cc1C#Cc1cnc2cccnn12 [Ponatinib]
Effect (Phenocopy Screen) [2]: Suppressed HIV^a

Cc1nnc(C(=O)NC(C)(C)c2nc(C(=O)NCc3ccc(F)cc3)c(O)c(=O)n2C)o1 [Raltegravir]
HIV replication (positive control phenotype) ([2]; 10 uM, added 24 hour prior to exposure to HIV): suppressed HIV replication

CC(C)(C)c1cnc(CSc2cnc(NC(=O)C3CCNCC3)s2)o1 [SNS-032 (BMS-387032)]
Effect (Phenocopy Screen) [2]: Toxic in response

CN1CCN(CCOc2cc(OC3CCOCC3)c3c(Nc4c(Cl)ccc5c4OCO5)ncnc3c2)CC1 [Saracatinib]
Effect (Phenocopy Screen) [2]: Suppressed HIV^a

Cn1nnc2c(C(N)=O)ncn2c1=O [Temozolomide]
Effect (Phenocopy Screen) [2]: Suppressed HIV^a

O=C1CCC(N2C(=O)c3ccccc3C2=O)C(=O)N1 (centres unmarked) [Thalidomide]
Effect (Phenocopy Screen) [2]: Suppressed HIV^a

CCCS(=O)(=O)Nc1ccc(F)c(C(=O)c2c[nH]c3ncc(-c4ccc(Cl)cc4)cc23)c1F [Vemurafenib]
Effect (Clearance Screen) [1]: Suppressed HIV^b

CC[C@]1(O)C[C@H]2CN(CCc3c([nH]c4ccccc34)[C@@](C(=O)OC)(c3cc4c(cc3OC)N(C=O)[C@H]3[C@@](O)(C(=O)OC)[C@H](OC(C)=O)[C@]5(CC)C=CCN6CC[C@]43[C@@H]65)C2)C1 [Vincristine sulfate]
Effect (Phenocopy Screen) [2]: Suppressed HIV^a

O=C(CCCCCCC(=O)Nc1ccccc1)NO [Vorinostat]
Effect (Phenocopy Screen) [2]: Toxic in response

C=CC(=O)Nc1cccc(Oc2nc(Nc3ccc(N4CCN(C)CC4)cc3OC)ncc2Cl)c1 [WZ4002]
Effect (Phenocopy Screen) [2]: Suppressed HIV^a
